Data on 9 compounds can be found in patent publication US20220169603A1, “NOVEL SALTS, CRYSTALLINE FORMS AND PREMIX OF HYPOLIPIDEMIC AGENT” (Cadila Healthcare Ltd., priority 2019, published 2022).

Data set [1] in a line: Stability of selected compounds measured by HPLC purity over 6 months. It counts as physicochemical. As to the method: • Column: YMC-pack ODS-AM (type L1) or equivalent; 250×4.6 mm, 5 μm • Wave length: 294 nm • Column temp.: 30° C. • Mobile phase: [Ammonium acetate buffer: Acetonitrile]/[55:45] • Flow rate: 1 ml/min • Injection vol.: 5 μl • Retention time: About 10 mints. • Run time: 60 mints.

Data set [2] deals with serum triglyceride levels. As to the kind of experiment: Comparative efficacy study (triglyceride lowering effects) in Swiss albino mice. It counts as in vivo. The following applies: for % Change Day 6 vs Day 0 (serum triglycerides) / % Change Vs control (serum triglycerides) / Serum triglycerides Day 6: 1 mg/kg free acid equivalent, oral, once daily for six days; for % Change Vs control (serum triglycerides): vs vehicle control; for reduction in serum triglyceride levels as compared to vehicle control group: p.o., six days; for Serum triglycerides Day 0: Day 0, before treatment, male Swiss albino mice, 6 per group; for Serum triglycerides Day 6: Day 6, one hr after dose. As to the method: The in-vivo efficacy of test compound was evaluated in Swiss albino mice. Anti-dyslipidemic drugs have been reported to lower circulating levels of triglyceride in Swiss albino mice through their effect on genes involved in the peroxisomal fatty acid beta oxidation via PPAR alpha agonism. Therefore, this species is preferred for evaluation of their efficacy in lowering circulating triglyceride (TG) levels.
In this experiment, ten to eleven week old male Swiss albino mice were issued and kept for acclimatization. Near the end of the acclimatization period, animals judged to be suitable for testing were bled under light anesthesia and serum samples were analyzed for serum triglyceride levels.
Test compounds were formulated at specified doses in vehicle (MiliQ Water). The animals were dosed orally, once daily in the morning during six days, starting from next day of grouping with vehicle or test compound. The animals were weighed prior to dosing, and based on these weights; the volume of administration was calculated. The volume of formulation administered to each mouse was 10 ml/kg body weight.
On day 6, one-hr after the dose administration, blood (0.25 ml) was collected from retro-orbital sinus of the anaesthetized animals. Serum was separated by centrifugation. Serum was analyzed for triglyceride levels. Analysis for serum triglyceride levels was performed using Spectrophotometer and commercially available kit. Calculations for determination of % change and % reduction in serum TG levels (Table 3) were performed using MS Excels sheet.

Data set [3] can be described thus: Stability study of Saroglitazar free acid (purity and % of impurity on storage). It counts as physicochemical. An excerpt:
Further the Saroglitazar free acid as disclosed in WO03009841 was always obtained in liquid form.

For `CCO[C@@H](Cc1ccc(OCCn2c(C)ccc2-c2ccc(SC)cc2)cc1)C(=O)[O-].[Li+]` [Example 12, (S)-2-ethoxy-3-(4-(2-(2-methyl-5-(4-(methylthio)phenyl)-1H-pyrrol-1-yl)ethoxy)phenyl)propanoic Acid Lithium Salt], in data set [1], the “HPLC (% purity) At 0 month” value came to 96.82% and the “HPLC (% purity) After 6 months” value was determined as 95.50%.

Take “(S)-2-ethoxy-3-(4-(2-(2-methyl-5-(4-(methylthio)phenyl)-1H-pyrrol-1-yl)ethoxy)phenyl)propanoic Acid Aluminum Salt [Example 14]”: in data set [2], the “% Change Day 6 vs Day 0 (serum triglycerides)” value is −35.1 ± 10.9%, the “% Change Vs control (serum triglycerides)” value (from here on “% Change Vs control”) is given as −63.1 ± 6.2%, the “Serum triglycerides Day 0” value turned out to be 61.9 ± 7.4 mg/dL and the “Serum triglycerides Day 6” value worked out at 37.4 ± 3.4 mg/dL. Besides, the “reduction in serum triglyceride levels as compared to vehicle control group” value (“reduction in serum triglyceride levels” below) in data set [2] (1 mg/kg) is on record as 63,1%. Besides, in data set [1], the “HPLC (% purity) At 0 month” value is on record as 96.79% and the “HPLC (% purity) After 6 months” value was 94.94%.

Take “(S)-2-ethoxy-3-(4-(2-(2methyl-5-(4-(methylthio)phenyl)-1H-pyrrol-1-yl)ethoxy)phenyl)propanoic Acid Calcium Salt [Example 16]”: in data set [2], the “% Change Day 6 vs Day 0 (serum triglycerides)” value was −33.9 ± 14.3%, the “% Change Vs control” value was −62.4 ± 8.1%, the “Serum triglycerides Day 0” value was determined as 61.3 ± 6.4 mg/dL and the “Serum triglycerides Day 6” value was found to be 38.2 ± 5.6 mg/dL. Besides, in data set [2] (1 mg/kg), the “reduction in serum triglyceride levels” value turned out to be 62.4%. In data set [1], the “HPLC (% purity) At 0 month” value was 96.83% and the “HPLC (% purity) After 6 months” value was 96.76%.

Consider “(S)-2-ethoxy-3-(4-(2-(2-methyl-5-(4-(methylthio)phenyl)-1H-pyrrol-1-yl)ethoxy)phenyl)propanoic Acid Magnesium Salt [Example 28]”, for which, in data set [2], the “% Change Day 6 vs Day 0 (serum triglycerides)” value is −47.7 ± 10.2%, the “% Change Vs control” value is on record as −70.2 ± 5.8% and the “Serum triglycerides Day 0” value was 64.3 ± 8.6 mg/dL. The “Serum triglycerides Day 6” value in data set [2] (1 mg/kg) is 30.0 ± 3.8 mg/dL. In addition, in data set [1], the “HPLC (% purity) At 0 month” value was 93.08% and the “HPLC (% purity) After 6 months” value is 90.72%.

For the compound “(S)-2-ethoxy-3-(4-(2-(2-methyl-5-(4-(methylthio)phenyl)-1H-pyrrol-1-yl)ethoxy)phenyl)propanoic Acid Magnesium Salt [Example 29]”, in data set [2], the “% Change Day 6 vs Day 0 (serum triglycerides)” value was −35.5 ± 7.5%, the “% Change Vs control” value was −63.3 ± 4.3% and the “Serum triglycerides Day 0” value came to 59.4 ± 5.0 mg/dL. In data set [2] (1 mg/kg), the “Serum triglycerides Day 6” value came to 37.0 ± 3.5 mg/dL. Also, in data set [1], the “HPLC (% purity) At 0 month” value came out at 97.68% and the “HPLC (% purity) After 6 months” value stood at 94.63%.

In the case of `CCO[C@@H](Cc1ccc(OCCn2c(C)ccc2-c2ccc(SC)cc2)cc1)C(=O)O` [Saroglitazar, (S) 2-Ethoxy-3-(4-{2-[2-methyl-5-(4-methylthiophenyl)-pyrrol-1-yl]-ethoxy}-phenyl)-propionic acid], in data set [2], the “% Change Day 6 vs Day 0 (serum triglycerides)” value amounted to 8.7 ± 9.0%, the “% Change Vs control” value is reported as −38.2 ± 5.1%, the “Serum triglycerides Day 0” value came to 61.8 ± 7.4 mg/dL and the “Serum triglycerides Day 6” value turned out to be 65.9 ± 7.7 mg/dL. Also, the “reduction in serum triglyceride levels” value in data set [2] (1 mg/kg) is recorded as 38.2%. In data set [3] (at 0-5° C.), the “% of impurity (RT-~22.0 min) AFTER 6 DAYS” value is on record as “(0.598%)”, the “PURITY AFTER 6 DAYS” value is 98.44%, the “% of impurity (RT-~22.0 min) AFTER 17 DAYS” value is on record as “(0.631%)” and the “PURITY AFTER 17 DAYS” value turned out to be 98.39%. Also, in data set [3] (at 0-5° C.), the “% of impurity (RT-~22.0 min), initial” value is listed as “(0.573%)” and the “INITIAL PURITY” value worked out at 98.11%. Also, in data set [3] (at 25~30° C.), the “% of impurity (RT-~22.0 min) AFTER 6 DAYS” value was “(0.770%)”, the “PURITY AFTER 6 DAYS” value turned out to be 98.12%, the “% of impurity (RT-~22.0 min) AFTER 17 DAYS” value is reported as “(0.850%)” and the “PURITY AFTER 17 DAYS” value was 97.87%. Further, in data set [3] (at 25~30° C.), the “% of impurity (RT-~22.0 min), initial” value is reported as “(0.573%)” and the “INITIAL PURITY” value was determined as 98.11%. The “stability (in words)” value in data set [3] (room temperature conditions) is “less stable”.

“(S)-2-ethoxy-3-(4-(2- (2-methyl-5-(4-(methylthio)phenyl)-1H-pyrrol-1-yl)ethoxy)phenyl)propanoic Acid Magnesium Salt [Example 31]”: in data set [1], the “HPLC (% purity) At 0 month” value is listed as 96.95% and the “HPLC (% purity) After 6 months” value is recorded as 95.55%.

Turning to `CCO[C@@H](Cc1ccc(OCCn2c(C)ccc2-c2ccc(SC)cc2)cc1)C(=O)[O-].[Na+]` [Example 6, (S)-2-ethoxy-3-(4-(2-(2-methyl-5-(4-(methylthio)phenyl)-1H-pyrrol-1-yl)ethoxy)phenyl)propanoic Acid Sodium Salt], in data set [2], the “% Change Day 6 vs Day 0 (serum triglycerides)” value is recorded as −34.4 ± 10.5%, the “% Change Vs control” value is −62.7 ± 6.0%, the “Serum triglycerides Day 0” value came out at 59.6 ± 5.4 mg/dL and the “Serum triglycerides Day 6” value was determined as 39.0 ± 7.5 mg/dL. Besides, the “reduction in serum triglyceride levels” value in data set [2] (1 mg/kg) is listed as 62.7%.

Take “(S)-2-ethoxy-3-(4-(2-(2-methyl-5-(4-(methylthio)phenyl)-1H-pyrrol-1-yl)ethoxy)phenyl)propanoic Acid Magnesium Salt [Example 32]”: in data set [2], the “% Change Day 6 vs Day 0 (serum triglycerides)” value is recorded as −44.5 ± 10.4%, the “% Change Vs control” value is listed as −68.4 ± 5.9% and the “Serum triglycerides Day 0” value was found to be 61.9 ± 7.7 mg/dL. For the same compound, the “Serum triglycerides Day 6” value in data set [2] (1 mg/kg) was 32.6 ± 4.9 mg/dL. Further, in data set [1], the “HPLC (% purity) At 0 month” value stood at 97.10% and the “HPLC (% purity) After 6 months” value is reported as 95.78%.
